Where two headings read alike, the source gives them in different places.
Columns and labels:
[1] = target: T1, human cannabinoid receptor type 2 (Homo sapiens, UniProt P34972); test: Human CB2 Radioligand Binding Assay; details: membranes from stably transfected CHO CB2 cells
T1 construct: expressed in transfected cells; membrane preparation
Experimental: 1. Human CB2 Radioligand Binding Assay
This receptor binding filtration assay measures the receptor-ligand interactions of compounds by measuring ability to compete with a radiolabeled control ligand. Reactions were performed in 96 deep-well plate (Costar 3961) with a final volume of 600 ul. Compounds were added to each well either in single point (10 uM final) or dose-response. Compounds were delivered in DMSO or further diluted in incubation buffer to a final assay DMSO concentration of 1%. Incubation buffer (50 mM Tris-HCl pH 7.4, 2.5 mM EGTA, 5 mM MgCl2, 5.0 mg/ml fatty acid free BSA) was added to each well. Following buffer addition, [^3H] CP-55,940 was added. Tritiated CP-55,940 (Perkin Elmer) was used at the Kd determined from prior saturation binding experiments conducted on each lot of membranes. Membrane preparations from stably transfected CHO CB2 cells were added and the reaction was incubated for 90 minutes at 30° C. Unifilter GF/C filtration plates (Perkin Elmer) were pre-wet with 0.05% polyethylenimine. Samples were transferred to Unifilter plates and separation of unbound radioligand was achieved using a vacuum manifold (Millipore). Following thorough washing with 5 ml/well ice-cold wash buffer (50 mM Tris-HCl pH 7.4, 2.5 mM EGTA, 5 mM MgCl2, 0.5 mg/ml fatty acid free BSA), filterplates were dried completely. Betaplate Scint Scintillation cocktail (25 ul, Perkin Elmer) was applied and plates were read using Microbeta Trilux (Wallac). Data analysis was performed in Spotfire. Activity of the positive control (100 nM CP-55,940) was set as 100% efficacy.
Stable recombinant Human CB2-CHO cell membranes were prepared as follows: Chinese Hamster Ovarian (CHO) cells stably expressing human cannabinoid receptor type 2 were grown to 90% confluence in 15×100 mm culture dishes under puromycin selection (5 ug/ml) Cells were harvested from culture flasks using a cell scraper, were washed once with cold phosphate-buffered saline (calcium and magnesium free) and pelleted by centrifugation at 400 g for 5 min at 4° C. Cell pellet was washed once with cold phosphate-buffered saline and centrifuged again at 400×g for 5 min at 4° C. The pellet was suspended in ice-cold lysis buffer (10 mM Tris-HCl, 0.1 mM EDTA, containing […], pH 7.5) and homogenized in a chilled 7 ml glass dounce homogenizer using 50 strokes. The homogenate was centrifuged at 400 g for 15 min at 4° C. The cloudy supernatant was collected and centrifuged at 41000 g for 30 min at 4° C. The resulting pellet was washed with ice-cold sucrose-free lysis buffer and centrifuged again at 41000 g for 30 min at 4° C. The membrane pellet was suspended in sucrose-free storage buffer (10 mm Tris-HCl, 0.1 mM EDTA, pH 7.5) to a concentration of 2-3 mg protein/ml. Aliquots were flash frozen in liquid nitrogen and stored at −80° C. Concentration was determined using Dc protein assay kit (Bio-Rad).

[2] = target: T2, human cannabinoid receptor type 1 (Homo sapiens, UniProt P21554); test: Human CB1 Radioligand Binding Assay (basis of selectivity, CB2 vs. CB1); details: CB1: HEK 293 EBNA cells expressing human CB1; CB2: CHO CB2 membranes
T2 construct: purchased Perkin Elmer RBHCB1M; host or cells: HEK 293 EBNA cells
Experimental: 2. Human CB1 Radioligand Binding Assay
The incubation buffer was composed of 50 mM Tris-HCl pH 7.4, 2.5 mM EDTA, 5 mM MgCl2, 5.0 mg/ml fatty acid free BSA and the wash buffer was composed of 50 mM Tris-HCl pH 7.4, 2.5 mM EDTA, 5 mM MgCl2, 0.5 mg/ml fatty acid free BSA.

[3] = competition with [3H] CP-55,940, read-out: CB2 Ligand Binding Asssay EC50

T2 sequence (P21554 whole entry): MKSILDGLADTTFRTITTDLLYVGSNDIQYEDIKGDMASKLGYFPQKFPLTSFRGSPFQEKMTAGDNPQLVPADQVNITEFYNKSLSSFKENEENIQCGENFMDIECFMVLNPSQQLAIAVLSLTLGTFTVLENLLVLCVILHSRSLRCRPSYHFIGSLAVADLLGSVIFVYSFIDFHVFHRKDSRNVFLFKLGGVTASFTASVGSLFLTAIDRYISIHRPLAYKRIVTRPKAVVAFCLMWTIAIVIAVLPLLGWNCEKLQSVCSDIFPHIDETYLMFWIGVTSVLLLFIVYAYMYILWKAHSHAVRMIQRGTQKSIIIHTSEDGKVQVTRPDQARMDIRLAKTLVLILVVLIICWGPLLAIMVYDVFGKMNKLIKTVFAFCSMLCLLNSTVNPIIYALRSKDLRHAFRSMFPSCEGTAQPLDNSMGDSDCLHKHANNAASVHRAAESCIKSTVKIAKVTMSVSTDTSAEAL
T1 sequence (P34972 whole entry): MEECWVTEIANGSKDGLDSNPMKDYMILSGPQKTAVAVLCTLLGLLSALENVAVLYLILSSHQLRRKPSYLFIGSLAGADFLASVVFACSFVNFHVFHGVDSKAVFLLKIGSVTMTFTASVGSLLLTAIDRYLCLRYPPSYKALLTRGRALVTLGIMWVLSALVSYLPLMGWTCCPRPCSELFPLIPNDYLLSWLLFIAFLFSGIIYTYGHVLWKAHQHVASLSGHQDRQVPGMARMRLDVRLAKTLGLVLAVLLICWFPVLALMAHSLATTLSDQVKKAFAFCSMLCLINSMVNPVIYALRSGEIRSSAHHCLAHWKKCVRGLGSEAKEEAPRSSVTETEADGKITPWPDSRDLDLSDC

| SMILES | EC50 [1, 3] [nM] | Selectivity, CB2 vs. CB1 [2] | EC50 ([1]; CB2 Ligand Binding Asssay EC50, competition with [3H] CP-55,940) [nM] |
| --- | --- | --- | --- |
| CN(c1ccc(C(C)(C)C)cc1)c1nc(-c2ccc(F)c(F)c2)nc2ccccc12 [Example 21, N-(4-tert-Butylphenyl)-2-(3,4-difluorophenyl)-N-methylquinazolin-4-amine] | > 1000 | − (− indicates ≦ 10−fold) |  |
| Fc1ccc(-c2nc(N3CCCCC3)c3ccccc3n2)c(F)c1 [Example 23, 2-(2,4-Difluorophenyl)-4-(piperidin-1-yl)quinazoline] | > 1000 | − (− indicates ≦ 10−fold) |  |
| Fc1ccc(-c2nc(N3CCOCC3)c3ccccc3n2)c(F)c1 [Example 25, 4-(2-(2,4-Difluorophenyl)quinazolin-4-yl)morpholine] | > 1000 | − (− indicates ≦ 10−fold) |  |
| CN(Cc1ccccc1)c1nc(-c2ccc(F)cc2F)nc2ccccc12 [Example 26, Benzyl[2-(2,4-difluorophenyl)quinazolin-4-yl]methylamine] | > 1000 | − (− indicates ≦ 10−fold) |  |
| Clc1ccc(-c2nc(N3CCCC3)c3ccccc3n2)c(Cl)c1 [Example 28, 2-(2,4-Dichlorophenyl)-4-pyrrolidin-1-ylquinazoline] | > 1000 | + (+ indicates > 10−fold) |  |
| Clc1ccc(-c2nc(NCC3CC3)c3ccccc3n2)c(Cl)c1 [Example 30, Cyclopropylmethyl[2-(2,4-dichlorophenyl)quinazolin-4-yl]amine] |  | + (+ indicates > 10−fold) | > 1000 |
| Clc1ccc(-c2nc(NCc3ccccc3)c3ccccc3n2)c(Cl)c1 [Example 31, Benzyl[2-(2,4-dichlorophenyl)quinazolin-4-yl]amine] | > 1000 | − (− indicates ≦ 10−fold) |  |
| CN(Cc1ccccc1)c1nc(-c2ccc(Cl)cc2Cl)nc2ccccc12 [Example 32, N-Benzyl-2-(2,4-dichlorophenyl)-N-methylquinazolin-4-amine] | > 1000 | − (− indicates ≦ 10−fold) |  |
| Clc1ccccc1Nc1nc(C2CCCCC2)nc2ccccc12 [Example 37, N-(2-Chlorophenyl)-2-cyclohexylquinazolin-4-amine] | > 1000 | − (− indicates ≦ 10−fold) |  |
| c1ccc(CNc2nc(C3CCCCC3)nc3ccccc23)cc1 [Example 38, N-Benzyl-2-cyclohexylquinazolin-4-amine] | > 1000 | − (− indicates ≦ 10−fold) |  |
| CCCc1nc(N2CCCC2)c2ccccc2n1 [Example 40, 2-Propyl-4-(pyrrolidin-1-yl)quinazoline] | > 1000 | − (− indicates ≦ 10−fold) |  |
| CCCc1nc(N2CCN(C)CC2)c2ccccc2n1 [Example 41, 4-(4-Methylpiperazin-1-yl)-2-propylquinazoline] | > 1000 | − (− indicates ≦ 10−fold) |  |
| FC(F)(F)c1ccc(-c2nc(N3CCCC3)c3ccccc3n2)cc1 [Example 45, 4-(Pyrrolidin-1-yl)-2-(4-(trifluoromethyl)phenyl)quinazoline] | < 1000 | + (+ indicates > 10−fold) |  |
| CC(C)(C)c1ccc(Nc2nc(-c3ccc(C(F)(F)F)cc3)nc3ccccc23)cc1 [Example 46, (4-tert-Butylphenyl)-[2-(4-trifluoromethylphenyl)quinazolin-4-yl]amine] | < 1000 | + (+ indicates > 10−fold) |  |
| c1ccc(-c2nc(N3CCCC3)c3ccccc3n2)cc1 [Example 48, 2-Phenyl-4-(pyrrolidin-1-yl)quinazoline] | > 1000 | − (− indicates ≦ 10−fold) |  |
| Clc1ccccc1Nc1nc(-c2ccccc2)nc2ccccc12 [Example 49, N-(2-Chlorophenyl)-2-phenylquinazolin-4-amine] | > 1000 | − (− indicates ≦ 10−fold) |  |
| c1ccc(-c2nc(NCC3CC3)c3ccccc3n2)cc1 [Example 50, N-(Cyclopropylmethyl)-2-phenylquinazolin-4-amine] | > 1000 | − (− indicates ≦ 10−fold) |  |
| CC(C)CNc1nc(-c2ccccc2)nc2ccccc12 [Example 51, N-iso-Butyl-2-phenylquinazolin-4-amine] | > 1000 | − (− indicates ≦ 10−fold) |  |
| c1ccc(-c2nc(N3CCCCC3)c3ccccc3n2)cc1 [Example 52, 2-Phenyl-4-(piperidin-1-yl)quinazoline] | > 1000 | − (− indicates ≦ 10−fold) |  |

The next lines start with results.

| EC50 [1, 3] [nM] | Selectivity, CB2 vs. CB1 [2] | SMILES | EC50 ([1]; CB2 Ligand Binding Asssay EC50, competition with [3H] CP-55,940) [nM] |
| --- | --- | --- | --- |
| < 1000 | + (+ indicates > 10−fold) | CC(C)(C)c1ccc(Nc2nc(-c3ccc(F)c(F)c3)nc3ccccc23)cc1 [Example 20, N-(4-tert-Butylphenyl)-2-(3,4-difluorophenyl)quinazolin-4-amine] |  |
| < 1000 | − (− indicates ≦ 10−fold) | Fc1ccc(-c2nc(N3CCCC3)c3ccccc3n2)c(F)c1 [Example 22, 2-(2,4-Difluorophenyl)-4-(pyrrolidin-1-yl)quinazoline] |  |
| < 1000 | − (− indicates ≦ 10−fold) | CC(=O)N1CCN(c2nc(-c3ccc(F)cc3F)nc3ccccc23)CC1 [Example 24, 1-(4-(2-(2,4-Difluorophenyl)quinazolin-4-yl)piperazin-1-yl)ethanone] |  |
| < 1000 | − (− indicates ≦ 10−fold) | CN1CCN(c2nc(-c3ccc(F)cc3F)nc3ccccc23)CC1 [Example 27, 2-(2,4-Difluorophenyl)-4-(4-methylpiperazin-1-yl)quinazoline] |  |
| < 1000 | + (+ indicates > 10−fold) | Clc1ccc(-c2nc(N3CCCCC3)c3ccccc3n2)c(Cl)c1 [Example 29, 2-(2,4-Dichlorophenyl)-4-piperidin-1-ylquinazoline] |  |
| < 1000 | − (− indicates ≦ 10−fold) | CN1CCN(c2nc(C3CCCCC3)nc3ccccc23)CC1 [Example 33, 2-Cyclohexyl-4-(4-methylpiperazin-1-yl)quinazoline] |  |
| < 1000 | − (− indicates ≦ 10−fold) | c1ccc2c(N3CCCCC3)nc(C3CCCCC3)nc2c1 [Example 34, 2-Cyclohexyl-4-(piperidin-1-yl)quinazolines] |  |
| < 1000 | − (− indicates ≦ 10−fold) | c1ccc2c(N3CCOCC3)nc(C3CCCCC3)nc2c1 [Example 35, 4-(2-Cyclohexylquinazolin-4-yl)morpholine] |  |
| < 1000 | + (+ indicates > 10−fold) | c1ccc2c(N3CCCC3)nc(C3CCCCC3)nc2c1 [Example 36, 2-Cyclohexyl-4-(pyrrolidin-1-yl)quinazolines] |  |
| < 1000 | + (+ indicates > 10−fold) | CN1CCN(c2nc(-c3ccc(C(F)(F)F)cc3)nc3ccccc23)CC1 [Example 42, 4-(4-Methylpiperazin-1-yl)-2-(4-(trifluoromethyl)phenyl)quinazoline] |  |
| < 1000 | + (+ indicates > 10−fold) | FC(F)(F)c1ccc(-c2nc(N3CCOCC3)c3ccccc3n2)cc1 [Example 43, 4-(2-(4-(Trifluoromethyl)phenyl)quinazolin-4-yl)morpholine] |  |
| < 1000 | − (− indicates ≦ 10−fold) | FC(F)(F)c1ccc(-c2nc(N3CCCCC3)c3ccccc3n2)cc1 [Example 44, 4-(Piperidin-1-yl)-2-(4-(trifluoromethyl)phenyl)quinazoline] |  |
